System: HR+/HER2+ human breast cancer BT-474 (PIK3CA amplified)
Experiment: In vivo pharmacodynamic study, BT-474 nude mouse subcutaneous xenograft tumor model
Set-up: species or system BALB/c nude mice
Experimental: The phenotype of human BT-474 breast cancer cells is HR+/HER2+, and it has PIK3CA amplification. This experiment evaluated the efficacy of the crystal form A of the compound represented by formula (I) in a human breast cancer xenograft tumor model, using BYL-719 as a reference.
Cell culture: Human breast cancer BT474 cells were cultured in vitro in a single layer, the culture condition was Hybri-Care medium with 10% fetal bovine serum and the cells were incubated in 5% CO2 at 37° C. Digestion and passage treatment with trypsin-EDTA was carried out twice a week. When the cell saturation was 80%-90% and the number reached the requirement, the cells were collected, counted and inoculated.
Animals: BALB/c nude mice, female, 6-8 weeks old, weighing 18-20 g. A total of 85 animals were required, and provided by Shanghai Bikai experimental animal Co., Ltd.
Tumor inoculation: Estrogen tablets (0.36 mg/tablet) were subcutaneously inoculated on the left back of each mouse, three days later, 0.2 mL (10×10^6 cells) of BT474 cells (with matrigel in a volume ratio of 1:1) were subcutaneously inoculated on the right back of each mouse, group administration was started when the average tumor volume reached 150 mm^3−200 mm^3.
Tumor-bearing mice in each administration group had good tolerance to the tested compounds.

[1] = 10 mg/kg, oral once a day for 20 days
[2] = 10 mg/kg, oral once a day for 20 days, listed as crystal form A of the compound represented by formula (I)
[3] = 20 mg/kg, oral once a day for 20 days
[4] = 20 mg/kg, oral once a day for 20 days, listed as crystal form A of the compound represented by formula (I)
[5] = 40 mg/kg, oral once a day for 20 days
[6] = 40 mg/kg, oral once a day for 20 days, listed as crystal form A of the compound represented by formula (I)

`CNC(=O)[C@H](C)Cn1cnc2ccc(-c3cnc(OC)c(NS(=O)(=O)c4ccc(F)cc4F)c3)cc2c1=O` was tested, and the “Anti-tumor effect (in words)” value (10 mg/kg group) was “strong anti-tumor effect”, the T/C % [1] was 50.18% and the TGI % [1] was 65.34%. The T/C % [2] was 50.18%, the TGI % [2] was 65.34% and the “Anti-tumor effect (in words)” value (20 mg/kg group) was “strong anti-tumor effect”. The T/C % [3] was 37.92%, the TGI % [3] was 80.21% and the T/C % [4] was 37.92%. For the same compound, the TGI % [4] was 80.21%, the “Anti-tumor effect (in words)” value (40 mg/kg group) was “significant anti-tumor effects” and the T/C % [5] was 21.16%. The TGI % [5] was 105.65%, the T/C % [6] was 21.16% and the TGI % [6] was 105.65%. For the same compound, the “Dose to play the effect” value (oral once a day for 20 days) was 10 mg/kg.
